From PMC9400670, “Establishing the selective phospholipid membrane coordination, permeation and lysis properties for a series of ‘druggable’ supramolecular self-associating antimicrobial amphiphiles” (Chemical Science, 2022)
Values after ≈ are worked out from the molar mass of the structure shown.

Columns and labels:
MRSA USA300 [1] = assay: MIC50 determination and initial screening from OD600 growth curves, MRSA USA300; format: cell-based, Staphylococcus aureus; conditions: Staphylococcus aureus, 15 h, Table S3, conversion of the mM values of Table 1; MRSA USA300; after 900 mins
Source text: (§1) The antimicrobial activity of SSAs 1–14 was established against both a model Gram-positive, clinically relevant methicillin resistant Staphylococcus aureus (MRSA), and a model Gram-negative, E. coli bacteria, Table 1. Here MIC50 values are given in mM to enable the derivation of molecular structure: antimicrobial efficacy: physical property relationships. […]
(§2) Data were acquired in endpoint mode. […]
(§3) Section 3: Microbial Methods
(§4) These methods were taken directly from UK Health and Security Office (UKHSA) standard operating […]
(§5) Preparation of Luria Broth media (LB): Yeast extract (5 g), tryptone (10 g) and sodium chloride (10 g) were dissolved in dH₂O (1 L) then divided into bottles and autoclaved.
(§6) Preparation of Luria Broth (LB) agar plates: Agar (6 g) was added to LB (400 mL) and autoclaved. Once cool, the LB agar was poured into sterile petri dishes under sterile conditions and allowed to set. LB plates were stored at 4 °C until use.
(§7) Preparation of bacterial plates: Sterile LB agar plates were streaked using Escherichia coli DH10B or USA300 Methicillin-Resistant Staphylococcus aureus then incubated at 37 °C overnight.
(§8) Preparation of Inoculum: An initial culture was made up by inoculating LB media (5 mL) with a single colony of bacteria under sterile conditions and incubated at 37 °C with shaking overnight. The following day, overnight bacterial cultures were subcultured into fresh LB medium to a starting OD600 […]
(§9) Preparation of 96 well microplate for screening: 20 mM solutions of each compound to be tested were made up using 5 % ethanol. The 1:100 cell suspension (150 µL) was pipetted into the wells and SSA compound solutions (30 µL) were added into each well. The final screening concentration for each compound was 3.3 mM in the well. These were incubated for 20 hours in a plate reader, with optical density readings being taken at 600 nm every 15 minutes. Optical density readings were plotted against time to produce growth curves. […]
(§10) individual wells under sterile conditions. Compounds (30 µL) were added to the wells to equal a total volume of 180 µL in the wells. Six repeats of each concentration for each compound were created each plate. The plates were sealed using parafilm, then incubated at 37°C in a microplate reader for 18-25 hours. Optical density readings were taken at 600 nm every 15 min. Data was used to generate […]
(§11) Calculation of MIC50: Growth curves were plotted using OD600 optical density readings in Microsoft ® Excel ® 2013. OD600 optical density readings 900 minutes from the start of each of these growth cultures for each concentration of compound were plotted in Origin ® 2015. The resultant curve was normalized and fitted using the Boltzmann fit to define the MIC50 values for each compound.

[2] = test system: calcein loaded phospholipid vesicles (PC, PG, PE-PG mix, E. coli total, E. coli polar); assay: Synthetic phospholipid vesicle lysis (calcein leakage) assay; conditions: SSA 1.5 mM; thirty seconds after SSA addition; five vesicle types; in words
Method: Here, samples of phospholipid vesicles containing the fluorescent dye calcein were prepared. At internal vesicle concentrations, this dye undergoes self-quenching. […] The increase in fluorescence output is proportional to the % of vesicle lysis observed upon the addition of SSAs 1–14, when calibrated against a solution of vesicles know to have undergone 100% lysis, see Fig. 5.
Fig. 5 The average (n = 3) percentage lysis (%) of vesicles (30 μM) composed of five different lipid compositions (Table 2), with an internal calcein concentration of 70 mM at 298 K. The % vesicle lysis was calculated through observation of increasing fluorescence emission (λem = 515 nm), following the addition of SSAs […] (1.5 mM) in a H2O/EtOH 95 : 5 solution after: (a) 30 s and; (b) 15 min. Triton X-100 (1%) was used as a positive control for 100% vesicle lysis. Data normalised to the addition of a H2O/EtOH 95 : 5 solution. Red = PC, yellow = PG, green = PE-PG mix, blue = E. coli total, pink = E. coli polar. Error = standard error.
Section 2: General Methods […]
Preparation of vesicles: All lipids were purchased as powder stocks from Avanti Polar Lipids. Lipid vesicles were prepared according to standard procedures.1 Each phospholipid was dissolved in chloroform (~ 10 mL) and the solvent was removed under reduced pressure. The thin film of dried lipid was further dried in vacuo for at least 2 hours. Lipid films were resuspended in the desired buffer and subjected to 9 freeze-thaw cycles in liquid nitrogen and extruded 20 times through a 200 nm […]
Preparation of calcein loaded vesicles: Lipid films were resuspended in buffer A (70 mM calcein, 10 mM TRIS pH 8.5, 0.5 mM EDTA, 110 mM NaCl, pH adjusted to 6-7) and subjected to 9 freeze-thaw cycles in liquid nitrogen and extruded 20 times through a 200 nm polycarbonate membrane. The suspension was run down a size exclusion column packed with sephadex G-50 using buffer B (10 mM TRIS pH 8.5, 0.5 mM EDTA, 110 mM NaCl). The hydrodynamic dimeter of the lipids was monitored using an Anton Paar LitesizerTM 500 to ensure the separation of free and entrapped calcein.
Phospholipid concentration was adjusted to 30 µM for vesicle leakage experiments.
Vesicle leakage assay: Black bottom 96-well plates were prepared with the appropriate lipid solution (100 µL, 30 µM) and desired SSA solution (100 µL) prepared in H2O/EtOH 95: 5. A solution of 1 % Triton X-100 (16) was used for a 100 % lysis control and a H2O/EtOH 95: 5 solution was used as a 0 % lysis control. Fluorescent measurements were taken at 25 °C using an excitation value of 495 nm and an optimised gain of 983. Data were acquired in endpoint mode. All experiments were repeated in triplicate to ensure experimental reproducibility. […]
Data

MRSA USA300 [3] = conditions: n = 3, 0.5 McFarland standard, after 900 min, number in bracket = efficacy rank; cited from earlier work
E. coli DH10B [4] = conditions: after 900 min, cited from earlier work
E. coli DH10B [5] = assay: MIC50 determination and initial screening from OD600 growth curves, E. coli DH10B; format: cell-based, Escherichia coli; conditions: Escherichia coli, 15 h; Table S3, conversion of the mM values of Table 1; E. coli DH10B; after 900 mins
Source text: as §1, §2, §3, §4, §5, §6, §7, §8, §9, §10, §11

| MIC50 (MRSA USA300 [1]) | MIC50 (E. coli DH10B [5]) | SMILES | vesicle lysis activity [2] | MIC50 MRSA (MRSA USA300 [3]) | initial antimicrobial screening, inhibition of growth, E. coli (E. coli DH10B [4]; 3.3 mM) | MIC50 E. coli (E. coli DH10B [4]; E. coli DH10B, n = 3, 0.5 McFarland standard, number in bracket = efficacy rank) |
| --- | --- | --- | --- | --- | --- | --- |
| 1990 µg/mL (≈ 9.47 mM) |  | CCCCNC(=O)NCS(=O)(=O)O [SSA 13] | almost complete loss of any vesicle lysis activity | 4.41(10) mM | ^c (SSA did not pass initial antimicrobial screening, exhibited <10% inhibition of growth at 3.3 mM after 900 min and therefore excluded from further study) |  |
| 1440 µg/mL (≈ 6.34 mM) | 2820 µg/mL (≈ 12.5 mM) | CCCCNC(=S)NCS(=O)(=O)O [SSA 14] | almost complete loss of any vesicle lysis activity | 3.07(9) mM |  | 6.03(9) mM |
